According to PMC8138772 (The Journal of Biological Chemistry, 2021):
“Also recorded” adds a separate entry of the source. [ ]: non-standard residue; d: D form. The star is where a group is joined. Biotin = O=C1N[C@H]2[C@H](CS[C@H]2CCCCC(=O)*)N1; Cit = NC(=O)NCCC[C@H](N)C(=O)O

How the values were obtained:
[1] = molecular target: K562 αvβ6:mCherry cells (αvβ6 integrin) (Homo sapiens, UniProt P06756+P18564); format: binding
K562 cells = format: binding
in vitro = conditions: mouse, serum
[2] = mouse
normal mouse serum = conditions: 37 °C

Sequence of K562 αvβ6:mCherry cells (αvβ6 integrin) (P06756 31-889 limits assumed): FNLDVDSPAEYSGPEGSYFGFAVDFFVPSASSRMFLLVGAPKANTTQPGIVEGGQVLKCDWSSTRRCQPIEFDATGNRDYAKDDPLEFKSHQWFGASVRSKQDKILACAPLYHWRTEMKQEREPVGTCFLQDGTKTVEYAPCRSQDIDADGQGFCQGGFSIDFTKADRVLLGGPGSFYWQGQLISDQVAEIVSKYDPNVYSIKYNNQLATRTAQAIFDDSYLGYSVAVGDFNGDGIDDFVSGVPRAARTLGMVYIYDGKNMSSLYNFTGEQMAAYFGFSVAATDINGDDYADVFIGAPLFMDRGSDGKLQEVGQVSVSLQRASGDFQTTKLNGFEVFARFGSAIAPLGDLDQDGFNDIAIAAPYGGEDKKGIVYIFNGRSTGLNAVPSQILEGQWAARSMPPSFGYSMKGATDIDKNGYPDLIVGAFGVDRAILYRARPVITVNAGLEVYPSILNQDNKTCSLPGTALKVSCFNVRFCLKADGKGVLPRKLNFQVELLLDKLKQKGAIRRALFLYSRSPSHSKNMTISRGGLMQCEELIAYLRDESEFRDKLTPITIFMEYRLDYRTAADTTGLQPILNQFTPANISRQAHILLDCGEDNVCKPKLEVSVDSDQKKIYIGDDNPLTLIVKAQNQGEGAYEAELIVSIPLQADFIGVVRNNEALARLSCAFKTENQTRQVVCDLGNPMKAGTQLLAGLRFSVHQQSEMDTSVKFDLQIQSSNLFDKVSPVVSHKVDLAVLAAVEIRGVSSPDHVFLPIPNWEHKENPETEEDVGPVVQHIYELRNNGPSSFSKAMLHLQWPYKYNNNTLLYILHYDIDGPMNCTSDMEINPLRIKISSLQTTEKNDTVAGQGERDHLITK
Sequence of K562 αvβ6:mCherry cells (αvβ6 integrin) (P06756 891-1048 partner limits assumed): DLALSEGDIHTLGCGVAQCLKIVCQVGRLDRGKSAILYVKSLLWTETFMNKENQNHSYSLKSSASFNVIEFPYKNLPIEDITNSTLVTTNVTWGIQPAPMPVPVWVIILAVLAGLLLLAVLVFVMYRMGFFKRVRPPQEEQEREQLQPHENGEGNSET
Sequence of K562 αvβ6:mCherry cells (αvβ6 integrin) (P18564 22-788 limits assumed): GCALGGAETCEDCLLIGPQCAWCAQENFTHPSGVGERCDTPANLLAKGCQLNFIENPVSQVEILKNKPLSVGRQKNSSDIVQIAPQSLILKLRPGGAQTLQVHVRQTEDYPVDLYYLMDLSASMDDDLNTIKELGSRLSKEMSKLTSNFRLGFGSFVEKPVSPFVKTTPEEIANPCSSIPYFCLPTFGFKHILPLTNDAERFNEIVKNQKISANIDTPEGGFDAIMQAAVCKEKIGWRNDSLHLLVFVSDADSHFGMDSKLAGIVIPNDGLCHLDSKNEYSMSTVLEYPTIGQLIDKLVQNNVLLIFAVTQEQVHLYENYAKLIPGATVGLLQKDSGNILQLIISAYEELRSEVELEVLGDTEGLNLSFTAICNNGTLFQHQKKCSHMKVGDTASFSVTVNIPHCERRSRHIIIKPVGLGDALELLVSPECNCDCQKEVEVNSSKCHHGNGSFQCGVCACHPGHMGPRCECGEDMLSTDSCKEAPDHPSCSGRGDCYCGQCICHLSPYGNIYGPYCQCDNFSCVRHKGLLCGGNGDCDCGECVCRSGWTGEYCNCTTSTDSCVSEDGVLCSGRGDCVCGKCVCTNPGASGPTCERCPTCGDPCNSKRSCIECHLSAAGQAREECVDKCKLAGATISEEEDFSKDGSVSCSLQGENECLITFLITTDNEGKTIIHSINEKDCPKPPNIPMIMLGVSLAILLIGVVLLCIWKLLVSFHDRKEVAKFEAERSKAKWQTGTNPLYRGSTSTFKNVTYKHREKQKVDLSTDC

## CC(C)C[C@@H]1NC(=O)[C@H](CC(=O)O)NC(=O)CNC(=O)[C@H](CCCNC(=N)N)NC(=O)[C@H](CC(C)C)NC(=O)[C@H](CC(N)=O)NC(=O)[C@@H]2CCCN2C(=O)[C@H](C(C)C)NC(=O)[C@H](C)NC(=O)[C@@H](NC(=O)CCCC[C@@H]2SC[C@@H]3NC(=O)N[C@@H]32)CSc2c(F)c(F)c(c(F)c2F)-c2c(F)c(F)c(c(F)c2F)SC[C@@H](C(=O)N[C@@H](CCCNC(=N)N)C(=O)N[C@H](C(=O)N[C@@H](CCCCN)C(N)=O)[C@@H](C)O)NC(=O)[C@H](C(C)C)NC(=O)[C@H](CCCCN)NC(=O)[C@H](CCC(N)=O)NC(=O)[C@H](C)NC(=O)[C@H](CC(C)C)NC(=O)[C@H](C(C)C)NC(=O)[C@H](CCC(N)=O)NC1=O [C1C18 DFBP]
[1]
  binding to K562 αvβ6:mCherry cells (in words): high affinity and specificity comparable to the original A20FMDV2 peptide

## CC(C)C[C@@H]1NC(=O)[C@H](CC(=O)O)NC(=O)CNC(=O)[C@H](CCCNC(=N)N)NC(=O)[C@H](CC(C)C)NC(=O)[C@H](CC(N)=O)NC(=O)[C@@H]2CCCN2C(=O)[C@H](C(C)C)NC(=O)[C@H](C)NC(=O)[C@@H](NC(=O)CCCC[C@@H]2SC[C@@H]3NC(=O)N[C@@H]32)CSc2c(F)c(F)c(c(F)c2F)-c2c(F)c(F)c(c(F)c2F)SC[C@@H](C(=O)N[C@H](C(=O)N[C@@H](CCCCN)C(N)=O)[C@@H](C)O)NC(=O)[C@H](C)NC(=O)[C@H](C(C)C)NC(=O)[C@H](CCCCN)NC(=O)[C@H](CCC(N)=O)NC(=O)[C@H](C)NC(=O)[C@H](CC(C)C)NC(=O)[C@H](C(C)C)NC(=O)[C@H](CCC(N)=O)NC1=O [C1C19 DFBP]
K562 cells
  binding to parental K562 cells (in words): significantly bound to parental K562 cells at high concentrations

## CC(C)C[C@@H]1NC(=O)[C@H](CC(=O)O)NC(=O)CNC(=O)[C@H](CCCNC(=N)N)NC(=O)[C@H](CC(C)C)NC(=O)[C@H](CC(N)=O)NC(=O)[C@@H]2CCCN2C(=O)[C@H](C(C)C)NC(=O)[C@H](C)NC(=O)[C@@H](NC(=O)CCCC[C@@H]2SC[C@@H]3NC(=O)N[C@@H]32)CSc2c(F)c(F)c(c(F)c2F)-c2c(F)c(F)c(c(F)c2F)SC[C@@H](C(=O)N[C@@H](CCCCN)C(N)=O)NC(=O)[C@H](CCCNC(=N)N)NC(=O)[C@H](C)NC(=O)[C@H](C(C)C)NC(=O)[C@H](CCCCN)NC(=O)[C@H](CCC(N)=O)NC(=O)[C@H](C)NC(=O)[C@H](CC(C)C)NC(=O)[C@H](C(C)C)NC(=O)[C@H](CCC(N)=O)NC1=O [C1C20 DFBP]
[1]
  binding to K562 αvβ6:mCherry cells (in words): high affinity and specificity comparable to the original A20FMDV2 peptide

## CC(C)C[C@@H]1NC(=O)[C@H](CC(=O)O)NC(=O)CNC(=O)[C@H](CCCNC(=N)N)NC(=O)[C@H](CC(C)C)NC(=O)[C@H](CC(N)=O)NC(=O)[C@@H]2CCCN2C(=O)[C@H](C(C)C)NC(=O)[C@@H](NC(=O)[C@H](CC(N)=O)NC(=O)CCCC[C@@H]2SC[C@@H]3NC(=O)N[C@@H]32)CSc2c(F)c(F)c(c(F)c2F)-c2c(F)c(F)c(c(F)c2F)SC[C@@H](C(=O)N[C@@H](CCCNC(N)=O)C(=O)N[C@H](C(=O)N[C@@H](CCCCN)C(=O)N[C@H](C)C(N)=O)[C@@H](C)O)NC(=O)[C@H](C(C)C)NC(=O)[C@H](CCCCN)NC(=O)[C@H](CCC(N)=O)NC(=O)[C@H](C)NC(=O)[C@H](CC(C)C)NC(=O)[C@H](C(C)C)NC(=O)[C@H](CCC(N)=O)NC1=O [C2C18 CitTKAD DFBP]
In vitro
  half-life: 298 min

## CC(C)C[C@@H]1NC(=O)[C@H](CC(=O)O)NC(=O)CNC(=O)[C@H](CCCNC(=N)N)NC(=O)[C@H](CC(C)C)NC(=O)[C@H](CC(N)=O)NC(=O)[C@@H]2CCCN2C(=O)[C@H](C(C)C)NC(=O)[C@@H](NC(=O)[C@H](CC(N)=O)NC(=O)CCCC[C@@H]2SC[C@@H]3NC(=O)N[C@@H]32)CSc2c(F)c(F)c(c(F)c2F)-c2c(F)c(F)c(c(F)c2F)SC[C@@H](C(=O)N[C@@H](CCCNC(=N)N)C(=O)N[C@H](C(=O)N[C@@H](CCCCN)C(N)=O)[C@@H](C)O)NC(=O)[C@H](C(C)C)NC(=O)[C@H](CCCCN)NC(=O)[C@H](CCC(N)=O)NC(=O)[C@H](C)NC(=O)[C@H](CC(C)C)NC(=O)[C@H](C(C)C)NC(=O)[C@H](CCC(N)=O)NC1=O [C2C18 DFBP]
[1]
  binding to K562 αvβ6:mCherry cells (in words): high affinity and specificity comparable to the original A20FMDV2 peptide

## CC(C)C[C@@H]1NC(=O)[C@H](CC(=O)O)NC(=O)CNC(=O)[C@H](CCCNC(=N)N)NC(=O)[C@H](CC(C)C)NC(=O)[C@H](CC(N)=O)NC(=O)[C@@H]2CCCN2C(=O)[C@H](C(C)C)NC(=O)[C@@H](NC(=O)[C@H](CC(N)=O)NC(=O)CCCC[C@@H]2SC[C@@H]3NC(=O)N[C@@H]32)CSc2c(F)c(F)c(c(F)c2F)-c2c(F)c(F)c(c(F)c2F)SC[C@@H](C(=O)N[C@H](CCCNC(=N)N)C(=O)N[C@H](C(=O)N[C@@H](CCCCN)C(=O)N[C@H](C)C(N)=O)[C@@H](C)O)NC(=O)[C@H](C(C)C)NC(=O)[C@H](CCCCN)NC(=O)[C@H](CCC(N)=O)NC(=O)[C@H](C)NC(=O)[C@H](CC(C)C)NC(=O)[C@H](C(C)C)NC(=O)[C@H](CCC(N)=O)NC1=O [C2C18 RDTKAD DFBP]
[2]
  t1/2 of intact peptide in serum: 4.518 h
[1]
  reduced binding fluorescence (maximal signal versus A20FMDV2, Fig. 3B): ~60%

## CC(C)C[C@@H]1NC(=O)[C@H](CC(=O)O)NC(=O)CNC(=O)[C@H](CCCNC(=N)N)NC(=O)[C@H](CC(C)C)NC(=O)[C@H](CC(N)=O)NC(=O)[C@@H]2CCCN2C(=O)[C@H](C(C)C)NC(=O)[C@@H](NC(=O)[C@H](CC(N)=O)NC(=O)CCCC[C@@H]2SC[C@@H]3NC(=O)N[C@@H]32)CSc2c(F)c(F)c(c(F)c2F)-c2c(F)c(F)c(c(F)c2F)SC[C@@H](C(=O)N[C@H](C(=O)N[C@@H](CCCCN)C(N)=O)[C@@H](C)O)NC(=O)[C@H](C)NC(=O)[C@H](C(C)C)NC(=O)[C@H](CCCCN)NC(=O)[C@H](CCC(N)=O)NC(=O)[C@H](C)NC(=O)[C@H](CC(C)C)NC(=O)[C@H](C(C)C)NC(=O)[C@H](CCC(N)=O)NC1=O [C2C19 DFBP]
K562 cells
  binding to parental K562 cells (in words): significantly bound to parental K562 cells at high concentrations

## Biotin-CADVPNLRGDLQVLADQKVCRDTKDAD-NH2 (cysteine pairing not given here)
Normal mouse serum; up to 24 h
  cleaved bond: KD21-AD22, 24 h; also recorded: L6-Arg7, major
  fragment found: 719: unidentified, 4 h

## Biotin-CAVPNLRGDLQVLAQKVCRTK-NH2 (cysteine pairing not given here)
Normal mouse serum; up to 6 h
  cleaved bond: C18-arginine19

## Biotin-CAVPNLRGDLQVLAQKVCRTK-NH2 (cysteine pairing not given here) [C1C18 DFBP]
Normal mouse serum; up to 6 h
  cleaved bond: C18-arginine19, 2 h

## Biotin-NCVPNLRGDLQVLAQKVCRDTKAD-NH2 (cysteine pairing not given here)
Normal mouse serum; up to 24 h
  cleaved bond: L6-Arg7, major, 8 h; also recorded: Arg7-G8, major, 8 h; also recorded: Asn1-C2, 24 h

## Biotin-NCVPNLRGDLQVLAQKVCRTK-NH2 (cysteine pairing not given here)
Normal mouse serum; up to 6 h
  cleaved bond: C18-arginine19, 2 h

## Biotin-NCVPNLRGDLQVLAQKVC[Cit]TKAD-NH2 (cysteine pairing not given here)
Normal mouse serum; up to 24 h
  cleaved bond: Thr20-K21, 12 h

## biotin-NCVPhNLRGDLQVLAQKVCRDTKAD-amide
Normal mouse serum; up to 24 h
  cleaved bond: Asn1-C2, 24 h
